Experimental data published in patent US8022206B2 (OSI Pharmaceuticals, LLC, priority 2008, dated 2011).

Assays:
[1] = biological target: MET (human) (Homo sapiens, UniProt P08581); experiment: MET (human) AlphaScreen kinase assay, Km of ATP; assay type: biochemical; conditions: AlphaScreen, Km of ATP; read-out: Met biochemical IC50
How it was run: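 Human MET at lot-optimised concentration in 50 mM Tris pH 7.4 buffer with 1 mM DTT, compound at 1% DMSO final; enzyme starts the reaction, 60 min at RT.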

[2] = biological target: RON (human) (Homo sapiens, UniProt Q04912); experiment: RON (human) AlphaScreen kinase assay, Km of ATP; assay type: biochemical; conditions: AlphaScreen, Km of ATP; read-out: RON biochemical IC50
How it was run: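 Detection used PT66 AlphaScreen beads added in Tris pH 7.5/NaCl/EDTA/BSA buffer, read after 1 h incubation. Vehicle-only DMSO wells served as controls.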

RON (human), sequence (Q04912 25-1400): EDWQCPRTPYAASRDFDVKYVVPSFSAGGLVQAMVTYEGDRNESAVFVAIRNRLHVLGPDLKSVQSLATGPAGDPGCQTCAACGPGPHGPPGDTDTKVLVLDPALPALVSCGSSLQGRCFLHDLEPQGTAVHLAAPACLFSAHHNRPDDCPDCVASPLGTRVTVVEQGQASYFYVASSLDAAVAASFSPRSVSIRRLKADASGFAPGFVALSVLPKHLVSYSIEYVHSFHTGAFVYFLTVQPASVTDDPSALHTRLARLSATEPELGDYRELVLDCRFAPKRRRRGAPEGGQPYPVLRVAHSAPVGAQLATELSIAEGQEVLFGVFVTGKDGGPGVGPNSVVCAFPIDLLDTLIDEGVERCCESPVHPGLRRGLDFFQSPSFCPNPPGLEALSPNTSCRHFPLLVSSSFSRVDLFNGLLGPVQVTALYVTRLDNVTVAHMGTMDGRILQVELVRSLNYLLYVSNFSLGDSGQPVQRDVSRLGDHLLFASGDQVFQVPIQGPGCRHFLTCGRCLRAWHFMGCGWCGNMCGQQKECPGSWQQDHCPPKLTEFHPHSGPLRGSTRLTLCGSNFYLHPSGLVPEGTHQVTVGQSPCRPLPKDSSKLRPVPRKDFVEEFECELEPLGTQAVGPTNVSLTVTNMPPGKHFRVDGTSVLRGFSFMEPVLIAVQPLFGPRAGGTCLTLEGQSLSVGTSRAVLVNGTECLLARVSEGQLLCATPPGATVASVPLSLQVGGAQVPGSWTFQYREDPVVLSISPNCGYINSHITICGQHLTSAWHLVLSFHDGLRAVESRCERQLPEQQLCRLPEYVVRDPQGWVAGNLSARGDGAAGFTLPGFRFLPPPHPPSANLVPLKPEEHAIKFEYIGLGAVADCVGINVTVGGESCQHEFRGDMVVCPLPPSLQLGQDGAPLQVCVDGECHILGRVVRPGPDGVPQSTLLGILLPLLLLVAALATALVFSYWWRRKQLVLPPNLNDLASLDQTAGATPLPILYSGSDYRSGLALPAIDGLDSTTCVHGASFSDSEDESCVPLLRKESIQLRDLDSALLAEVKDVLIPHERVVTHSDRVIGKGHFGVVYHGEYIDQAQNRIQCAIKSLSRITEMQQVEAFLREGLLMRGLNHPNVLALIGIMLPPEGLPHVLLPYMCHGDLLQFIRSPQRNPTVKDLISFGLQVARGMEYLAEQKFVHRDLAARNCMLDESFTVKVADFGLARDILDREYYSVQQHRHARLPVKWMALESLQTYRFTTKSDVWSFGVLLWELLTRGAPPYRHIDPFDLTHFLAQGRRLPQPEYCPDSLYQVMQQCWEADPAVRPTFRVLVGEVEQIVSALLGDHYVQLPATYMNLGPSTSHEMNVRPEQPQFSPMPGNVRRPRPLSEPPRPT
MET (human), sequence (P08581 25-1390): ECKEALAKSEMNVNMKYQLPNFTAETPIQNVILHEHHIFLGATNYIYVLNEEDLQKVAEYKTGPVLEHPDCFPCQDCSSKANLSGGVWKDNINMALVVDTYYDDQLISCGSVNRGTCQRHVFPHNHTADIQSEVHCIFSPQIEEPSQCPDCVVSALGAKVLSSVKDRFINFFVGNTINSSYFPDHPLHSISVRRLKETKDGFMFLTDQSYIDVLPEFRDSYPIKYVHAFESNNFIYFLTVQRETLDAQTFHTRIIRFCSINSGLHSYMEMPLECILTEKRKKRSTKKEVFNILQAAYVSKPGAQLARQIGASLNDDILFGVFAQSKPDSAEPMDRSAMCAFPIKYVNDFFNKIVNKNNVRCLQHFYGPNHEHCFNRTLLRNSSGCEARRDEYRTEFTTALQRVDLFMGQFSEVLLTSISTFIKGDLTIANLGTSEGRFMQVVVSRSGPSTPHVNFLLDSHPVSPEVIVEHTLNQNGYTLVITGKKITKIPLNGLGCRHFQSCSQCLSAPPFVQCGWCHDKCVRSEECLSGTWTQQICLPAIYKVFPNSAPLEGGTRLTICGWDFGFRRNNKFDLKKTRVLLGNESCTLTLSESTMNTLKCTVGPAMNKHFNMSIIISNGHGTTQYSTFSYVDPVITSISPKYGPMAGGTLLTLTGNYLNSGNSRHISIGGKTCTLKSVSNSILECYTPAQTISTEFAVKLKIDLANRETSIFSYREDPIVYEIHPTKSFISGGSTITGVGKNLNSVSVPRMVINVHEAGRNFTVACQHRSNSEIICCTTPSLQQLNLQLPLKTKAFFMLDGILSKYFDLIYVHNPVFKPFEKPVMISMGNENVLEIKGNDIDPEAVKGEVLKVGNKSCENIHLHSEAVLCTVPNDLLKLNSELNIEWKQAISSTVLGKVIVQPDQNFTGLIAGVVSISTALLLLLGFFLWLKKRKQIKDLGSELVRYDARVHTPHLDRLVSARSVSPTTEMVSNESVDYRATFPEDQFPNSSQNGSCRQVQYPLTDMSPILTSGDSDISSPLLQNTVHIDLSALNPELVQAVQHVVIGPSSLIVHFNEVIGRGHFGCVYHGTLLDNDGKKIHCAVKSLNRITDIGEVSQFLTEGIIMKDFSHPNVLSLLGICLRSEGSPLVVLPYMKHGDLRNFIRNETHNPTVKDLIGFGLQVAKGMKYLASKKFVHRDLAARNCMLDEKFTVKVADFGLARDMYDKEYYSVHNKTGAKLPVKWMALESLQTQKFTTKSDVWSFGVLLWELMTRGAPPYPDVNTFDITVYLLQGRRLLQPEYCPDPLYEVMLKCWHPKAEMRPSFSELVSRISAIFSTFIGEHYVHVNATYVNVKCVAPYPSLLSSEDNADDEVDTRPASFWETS

IC50 [1]	IC50 [2]	SMILES
500 to 5000 nM	500 to 5000 nM	CC(Oc1c(N)ncc2c(-c3cnn(C4CCNCC4)c3)coc12)c1cccnc1 (stereo not drawn) [Example 398, 3-(1-Piperidin-4-yl-1H-pyrazol-4-yl)-7-(1-pyridin-3-ylethoxy)furo[3,2-c]pyridin-6-ylamine]
500 to 5000 nM	5000 to 20000 nM	Cc1ccsc1-c1coc2c(O[C@H](C)c3c(Cl)ccc(F)c3Cl)c(N)ncc12 [Example 116, 7-[(R)-1-(2,6-Dichloro-3-fluorophenyl)ethoxy]-3-(3-methylthiophen-2-yl)furo[3,2-c]pyridin-6-ylamine]
< 500 nM	500 to 5000 nM	CC(Cc1ccc(F)cc1)Oc1c(N)ncc2c(-c3cnn(C4CCNCC4)c3)coc12 (stereo not drawn) [Example 425, 7-[2-(4-Fluorophenyl)-1-methylethoxy]-3-(1-piperidin-4-yl-1H-pyrazol-4-yl)furo[3,2-c]pyridin-6-ylamine]
< 500 nM	500 to 5000 nM	C[C@@H](Oc1c(N)ncc2c(-c3ccc(CO)nc3)coc12)c1c(Cl)ccc(F)c1Cl [Example 118, (5-{6-Amino-7-[(R)-1-(2,6-dichloro-3-fluorophenyl)ethoxy]furo[3,2-c]pyridin-3-yl}pyridin-2-yl)methanol]
500 to 5000 nM	500 to 5000 nM	C[C@@H](Oc1c(N)ncc2c(-c3cccc(C(=O)NCCN4CCOCC4)c3)coc12)c1c(Cl)ccc(F)c1Cl [Example 97, 3-{6-Amino-7-[(R)-1-(2,6-dichloro-3-fluorophenyl)ethoxy]-furo[3,2-c]pyridin-3-yl}-N-(2-morpholin-4-ylethyl)benzamide]
500 to 5000 nM	500 to 5000 nM	CC(Oc1c(N)ncc2c(-c3cnn(C4CCNCC4)c3)coc12)c1c(Cl)ccc2ccccc12 (stereo not drawn) [Example 369, 7-[1-(2-Chloronaphthalen-1-yl)ethoxy]-3-(1-piperidin-4-yl-1H-pyrazol-4-yl)furo[3,2-c]pyridin-6-ylamine]
500 to 5000 nM	500 to 5000 nM	C[C@@H](Oc1c(N)ncc2c(-c3ccc(CN4CCSCC4)s3)coc12)c1c(Cl)ccc(F)c1Cl [Example 219, 7-[(R)-1-(2,6-Dichloro-3-fluorophenyl)ethoxy]-3-(5-thiomorpholin-4-ylmethylthiophen-2-yl)furo[3,2-c]pyridin-6-ylamine]
< 500 nM	< 500 nM	CC(Oc1c(N)ncc2c(-c3cnn(C4CCNCC4)c3)coc12)c1c(Cl)c(F)cc(OCCN(C)C)c1Cl (stereo not drawn) [Example 157, 7-(1-{2,6-Dichloro-3-[2-(dimethylamino)ethoxy]-5-fluorophenyl}ethoxy)-3-[1-(piperidin-4-yl)-1H-pyrazol-4-yl]furo[3,2-c]pyridin-6-amine]
500 to 5000 nM	500 to 5000 nM	CC(Oc1c(N)ncc2c(-c3cnn(C4CCNCC4)c3)coc12)c1ccc(F)cc1 (stereo not drawn) [Example 376, 7-[1-(4-Fluorophenyl)ethoxy]-3-(1-piperidin-4-yl-1H-pyrazol-4-yl)furo[3,2-c]pyridin-6-ylamine]
< 500 nM	500 to 5000 nM	CC(Oc1c(N)ncc2c(-c3cnn(C4CCNCC4)c3)coc12)c1ccc(Cl)cc1Cl (stereo not drawn) [Example 382, 7-[1-(2,4-Dichlorophenyl)ethoxy]-3-(1-piperidin-4-yl-1H-pyrazol-4-yl)furo[3,2-c]pyridin-6-ylamine]
500 to 5000 nM	500 to 5000 nM	C[C@@H](Oc1c(N)ncc2c(-c3cnn(C4CCNCC4)c3)coc12)c1ccncc1 [Example 397, 3-(1-Piperidin-4-yl-1H-pyrazol-4-yl)-7-((R)-1-pyridin-4-yl-ethoxy)furo[3,2-c]pyridin-6-ylamine]
500 to 5000 nM	500 to 5000 nM	C[C@@H](Oc1c(N)ncc2c(-c3ccc(C(=O)N4CCN(CCOCCO)CC4)cc3)coc12)c1c(Cl)ccc(F)c1Cl [Example 301, (4-{6-Amino-7-[(R)-1-(2,6-dichloro-3-fluoro-phenyl)ethoxy]furo[3,2-c]pyridin-3-yl}phenyl)-{4-[2-(2-hydroxyethoxy)ethyl]piperazin-1-yl}methanone]
< 500 nM	< 500 nM	C[C@@H](Oc1c(N)ncc2c(C3=CCN(C(=O)C4CCN(C)CC4)CC3)coc12)c1c(Cl)ccc(F)c1Cl [Example 17, (4-{6-Amino-7-[(R)-1-(2,6-dichloro-3-fluorophenyl)-ethoxy]-furo[3,2-c]pyridin-3-yl}-3,6-dihydro-2H-pyridin-1-yl)-(1-methylpiperidin-4-yl)-methanone]
500 to 5000 nM	500 to 5000 nM	CC(Oc1c(N)ncc2c(-c3cnn(C4CCNCC4)c3)coc12)c1cccc(-c2cn[nH]c2)c1 (stereo not drawn) [Example 447]
500 to 5000 nM	500 to 5000 nM	Cc1ccc(C(C)Oc2c(N)ncc3c(-c4cnn(C5CCNCC5)c4)coc23)cc1 (stereo not drawn) [Example 344, 3-(1-Piperidin-4-yl-1H-pyrazol-4-yl)-7-(1-p-tolylethoxy)furo[3,2-c]pyridin-6-ylamine]
< 500 nM	< 500 nM	Cc1ccc(-c2coc3c(O[C@H](C)c4c(Cl)ccc(F)c4Cl)c(N)ncc23)s1 [Example 95, 7-[(R)-1-(2,6-Dichloro-3-fluorophenyl)ethoxy]-3-(5-methylthiophen-2-yl)furo[3,2-c]pyridin-6-ylamine]
< 500 nM	500 to 5000 nM	CC(Oc1c(N)ncc2c(-c3cnn(C4CCNCC4)c3)coc12)c1ccc(Br)cc1 (stereo not drawn) [Example 388, 7-[1-(4-Bromophenyl)ethoxy]-3-(1-piperidin-4-yl-1H-pyrazol-4-yl)furo[3,2-c]pyridin-6-ylamine]
500 to 5000 nM	5000 to 20000 nM	C[C@@H](Oc1c(N)ncc2c(-c3cccc(NS(=O)(=O)CCC(F)(F)F)c3)coc12)c1c(Cl)ccc(F)c1Cl [Example 248, 3,3,3-Trifluoropropane-1-sulfonic acid (3-{6-amino-7-[(R)-1-(2,6-dichloro-3-fluorophenyl)ethoxy]-furo[3,2-c]pyridin-3-yl}phenyl)amide]
< 500 nM	500 to 5000 nM	C[C@@H](Oc1c(N)ncc2c(C(=O)NC3CCN(C)CC3)coc12)c1c(Cl)ccc(F)c1Cl [Example 186, 6-Amino-7-[(R)-1-(2,6-dichloro-3-fluorophenyl)ethoxy]furo[3,2-c]pyridine-3-carboxylic acid (1-methylpiperidin-4-yl)amide]
500 to 5000 nM	500 to 5000 nM	C[C@@H](Oc1c(N)ncc2c(-c3ccc(C(=O)Nc4nccs4)cc3)coc12)c1c(Cl)ccc(F)c1Cl [Example 109, 4-{6-Amino-7-[(R)-1-(2,6-dichloro-3-fluorophenyl)ethoxy]-furo[3,2-c]pyridin-3-yl}-N-thiazol-2-yl-benzamide]
500 to 5000 nM	500 to 5000 nM	C[C@@H](Oc1c(N)ncc2c(-c3cnc(N4CCN(C)CC4)nc3)coc12)c1c(Cl)ccc(F)c1Cl [Example 123, 7-[(R)-1-(2,6-Dichloro-3-fluorophenyl)ethoxy]-3-[2-(4-methylpiperazin-1-yl)pyrimidin-5-yl]furo[3,2-c]pyridin-6-ylamine]
500 to 5000 nM	500 to 5000 nM	C[C@@H]1CN[C@@H](C)CN1C(=O)c1ccc(-c2coc3c(O[C@H](C)c4c(Cl)ccc(F)c4Cl)c(N)ncc23)cc1 [Example 295]
< 500 nM	< 500 nM	C[C@@H](Oc1c(N)ncc2c(C3=CCN(C4CN(C(N)=O)C4)CC3)coc12)c1c(Cl)ccc(F)c1Cl [Example 324, 3-(4-{6-Amino-7-[(R)-1-(2,6-dichloro-3-fluorophenyl)ethoxy]furo[3,2-c]pyridin-3-yl}-3,6-dihydro-2H-pyridin-1-yl)azetidine-1-carboxamide]
< 500 nM	< 500 nM	C[C@@H](Oc1c(N)ncc2c(C3=CCN(C(=O)[C@]4(C)CCCN4)CC3)coc12)c1c(Cl)ccc(F)c1Cl [Example 160, [4-{6-Amino-7-[(1R)-1-(2,6-dichloro-3-fluorophenyl)ethoxy]furo[3,2-c]pyridin-3-yl}-3,6-dihydropyridin-1(2H)-yl][(2S)-2-methylpyrrolidin-2-yl]methanone]
500 to 5000 nM	500 to 5000 nM	C[C@H](Oc1c(N)ncc2c(-c3cnn(C4CCNCC4)c3)coc12)c1ccccn1 [Example 395, 3-(1-Piperidin-4-yl-1H-pyrazol-4-yl)-7-((S)-1-pyridin-2-yl-ethoxy)furo[3,2-c]pyridin-6-ylamine]
< 500 nM	500 to 5000 nM	CC(C)NC(=O)c1cc(-c2coc3c(O[C@H](C)c4c(Cl)ccc(F)c4Cl)c(N)ncc23)cs1 [Example 312, 4-{6-Amino-7-[(R)-1-(2,6-dichloro-3-fluorophenyl)ethoxy]furo[3,2-c]pyridin-3-yl}thiophene-2-carboxylic acid isopropylamide]
500 to 5000 nM	500 to 5000 nM	C[C@@H](Oc1c(N)ncc2c(-c3ccc(C(N)=O)cc3)coc12)c1c(Cl)ccc(F)c1Cl [Example 63, 4-{6-Amino-7-[(R)-1-(2,6-dichloro-3-fluorophenyl)ethoxy]-furo[3,2-c]pyridin-3-yl}benzamide]
< 500 nM	< 500 nM	Cn1c(Cc2ccccc2)ncc(-c2ccc(COc3c(N)ncc4c(-c5cnn(C6CCNCC6)c5)coc34)c(F)c2)c1=O [Example 463, 5-{4-[6-Amino-3-(1-piperidin-4-yl-1H-pyrazol-4-yl)-furo[3,2-c]pyridin-7-yloxymethyl]-3-fluorophenyl}-2-benzyl-3-methyl-3H-pyrimidin-4-one]
< 500 nM	< 500 nM	C[C@@H](Oc1c(N)ncc2c(-c3ccc(N4CCN(C)CC4)nc3)coc12)c1c(Cl)ccc(F)c1Cl [Example 88, 7-[(R)-1-(2,6-Dichloro-3-fluorophenyl)ethoxy]-3-[6-(4-methylpiperazin-1-yl)pyridin-3-yl]furo[3,2-c]pyridin-6-ylamine]
500 to 5000 nM	500 to 5000 nM	CCOC(=O)N1CC=C(c2coc3c(O[C@H](C)c4c(Cl)ccc(F)c4Cl)c(N)ncc23)CC1 [Example 51, 4-{6-Amino-7-[(R)-1-(2,6-dichloro-3-fluorophenyl)-ethoxy]-furo[3,2-c]pyridin-3-yl}-3,6-dihydro-2H-pyridine-1-carboxylic acid ethyl ester]
